Patent US12281102B2, “Inhibitors of APOL1 and methods of using same” (Vertex Pharmaceuticals Incorporated, priority 2020, dated 2025)
Structures can show the parent of a compound that is named as a salt.

Molecular target: T1, G1 APOL1 (Homo sapiens, UniProt O14791, I384M/S342G)
T1 construct: expressed in transfected cells
T1 sequence (O14791 28-398 S342G/I384M): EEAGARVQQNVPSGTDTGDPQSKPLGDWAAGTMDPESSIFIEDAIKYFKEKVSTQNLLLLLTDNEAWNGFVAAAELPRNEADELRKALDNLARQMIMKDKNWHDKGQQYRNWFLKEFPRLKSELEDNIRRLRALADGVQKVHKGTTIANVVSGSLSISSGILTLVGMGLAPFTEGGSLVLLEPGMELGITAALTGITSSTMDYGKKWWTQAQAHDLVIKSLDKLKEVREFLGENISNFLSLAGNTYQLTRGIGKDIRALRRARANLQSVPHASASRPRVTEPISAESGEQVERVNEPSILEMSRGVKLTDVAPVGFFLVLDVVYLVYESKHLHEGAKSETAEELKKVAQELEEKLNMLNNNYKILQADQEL
Assay: Acute APOL1 Thallium Assay with inducible stable clones of HEK 293 cells
Assay type: cell-based
Conditions: HEK 293 T-Rex inducible stable clone expressing G1 APOL1; read-out: Thallium Assay (IC50)
From the text: Acute APOL1 Thallium Assay with Inducible Stable Clones of HEK 293 Cells
Apolipoprotein L1 (APOL1) proteins form potassium-permeable cation pores in the plasma membrane. APOL1 risk variants (G1 and G2) induce greater potassium flux than G0 in HEK293 cells. This assay exploits the permeability of thallium (T1+) through ligand-gated potassium channels. The dye produces a bright fluorescent signal upon binding to T1+ conducted through potassium channels. The intensity of the T1+ signal is proportional to the number of potassium channels in the open state. Therefore, it provides a functional indication of the potassium channel activities. During the initial dye-loading step, the T1+ indicator dye as an acetoxymethyl (AM) ester enters the cells through passive diffusion. Cytoplasm esterases cleave the AM ester and relieve its active thallium-sensitive form. The cells are then stimulated with T1+. The increase of fluorescence in the assay represents the influx of T1+ into the cell specifically through the potassium channel (i.e. through APOL1 pores), providing a functional measurement of potassium channel/pore activity. The Thallium assay is conducted with cells expressing G1 APOL1.
APOL1 Cell Line (HEK T-Rex Stable Inducible Cell Line)
• HEK T-Rex System • Tetracycline (Tet) inducible mammalian expression system. • Stably express the Tet repressor to regulate transcription. • Expression under the full-length CMV promoter. • APOL1 stable inducible cell line Clone used: G1 DC3.25 Tissue Culture Media Cell Culture Medium • DMEM+10% FBS+P/S+5 μg/mL blasticidin+1 μg/mL puromycin. • 500 mL DMEM+55 mL FBS+5 mL P/S+280 μL blasticidin S HCl (10 mg/mL)+56 μL puromycin (10 mg/mL). Cell Assay Medium • DMEM with 2% FBS+penicillin streptomycin. Reagents:
Instruments and Equipment • Nuaire cell culture hood, Cat. No. 540-600 • 37° C./5% CO2 incubator link to robotic arm, Liconic: STX110 • Molecular Devices FLIPR^Tetra High throughput cellular screening system, Cat. No. FT0324, Molecular Devices • ThermoFisher MultiDrop 384, Cat. No. 5840300 • Biotek Microfill, Cat. No. ASF1000A-4145 • BioRad TC10 cell counter, Cat. No. 145-0010 Assay Procedures Cells Scaled Up from Frozen Vials • APOL1 G1 3.25 (HEK293 T-Rex) frozen vials: 5 million cells per vial • Step 1, Day 1: Defrost frozen vial into T-225. • Step 2, Day 5: (when 85% confluent): Split one T-225 at 3×10^6 cells per flask. • Step 3, Day 8: Splits cells to set up for the assay plates as described below. Cell Culture
T-Rex APOL1 HEK cells are split twice per week to keep the confluence state below 85% of the culture flask surface area. Cells can be kept until passage 25.
• DMEM high glucose+10% FBS, +P/S, +5 μg/mL blasticidin, +1 μg/mL puromycin. • 500 mL DMEM, +55 mL FBS, +5 mL P/S, +280 μL blasticidin 10 mg/mL, +56 μL Puromycin 10 mg/mL. Assay Media • Opti-MEM reduced serum medium from Invitrogen. Day 1 Preparation of Cell Assay Plates • Culture medium is removed from the x cm^2 T-flask by aspiration. • The cell monolayer is rinsed with PBS 1× at room temperature. PBS is removed by aspiration. • Cells are trypsinized using Trypsin. • The flasks are incubated at room temperature for 2-3 minutes. • Complete DMEM medium is then added. Cell suspension is then transferred to a 50 mL Falcon polypropylene tube. • Cells are then counted using a BioRad TC10 cell counter and the required amount of cells are centrifuged at 1200 RPM for 5 minutes. Required amount is 1.3×10^6 cells/mL APOL1 T-Rex HEK cells. • The pellet is suspended in the assay medium. • Using the MultiDrop, add 20 μL to each well (corresponds to 26000 cells total per well) of a 384-well black, transparent, flat bottom Poly-D coated plate. • Tetracycline as prepared in the following section is added to the cells before plating to induce APOL1 expression. • Plates are left at room temperature for 20 to 30 minutes before incubation at 37° C. and 5% CO2. […]

Structure (SMILES) | IC50 [nM]
Cc1nccn1CC(=O)N[C@H]1C[C@H](c2c(-c3ccc(F)cc3)[nH]c3c(F)cc(F)cc32)C1 [Compound 126] | > 1000
O=C1CC[C@H](C(=O)NC[C@H]2C[C@@H](c3c(-c4ccc(F)cc4)[nH]c4c(F)cc(F)cc43)C2)N1 [Compound 249] | > 1000
CC1(C(=O)NC2CC(Cc3c(-c4ccc(F)cc4)[nH]c4c(F)cc(F)cc34)C2)CCNC1=O (mixture of isomers) [Compound 169] | > 1000
O=C1CC(CC(=O)N[C@H]2C[C@@H](c3c(-c4ccc(F)cc4)[nH]c4c(F)cc(F)cc43)C2)CC(=O)N1 [Compound 72] | > 1000
CN1CCC(CC(=O)N[C@H]2C[C@@H](c3c(-c4ccc(F)cc4)[nH]c4c(F)cc(F)cc43)C2)C1 (stereo partly drawn) [Compound 45] | > 1000
N#CCS(=O)(=O)N[C@H]1C[C@@H](c2c(-c3ccc(F)cc3)[nH]c3c(F)cc(F)cc32)C1 [Compound 87] | > 1000
NC1CC(c2c(-c3ccc(OC(F)F)cc3)[nH]c3c(F)cc(F)cc23)C1 (stereo not drawn) [Compound 9] | < 250
O=C(NC[C@H]1C[C@H](c2c(-c3ccc(F)cc3)[nH]c3c(F)cc(F)cc32)C1)[C@H]1NCC[C@H]1O [Compound 229] | > 1000
C[C@@H](O)CNS(=O)(=O)NC[C@H]1C[C@H](c2c(-c3ccc(F)cc3)[nH]c3c(F)cc(F)cc32)C1 [Compound 351] | > 1000
CC[C@@H](N)C(=O)NC[C@H]1C[C@H](c2c(-c3ccc(F)cc3)[nH]c3c(F)cc(F)cc32)C1 [Compound 267] | > 1000
CC(C(=O)N[C@H]1C[C@H](c2c(-c3ccc(F)cc3)[nH]c3c(F)cc(F)cc32)C1)n1ccnc1 (mixture of isomers) [Compound 105] | > 1000
O=C(CN1CCOCC1)NC[C@H]1C[C@@H](c2c(-c3ccc(F)cc3)[nH]c3c(F)cc(F)cc32)C1 [Compound 272] | > 1000
OCC1(NCC2CC(c3c(-c4ccc(F)cc4)[nH]c4c(F)cc(F)cc34)C2)CC1 (stereo not drawn) [Compound 397] | > 1000
O=C(CO)N[C@H]1C[C@H](c2c(-c3ccc(F)cc3)[nH]c3c(F)cc(F)cc32)C1 [Compound 136] | < 250
COC1(CC(=O)NC[C@H]2C[C@@H](c3c(-c4ccc(F)cc4)[nH]c4c(F)cc(F)cc43)C2)CCC1 [Compound 324] | > 1000
CN(CC(=O)NC[C@H]1C[C@@H](c2c(-c3ccc(F)cc3)[nH]c3c(F)cc(F)cc32)C1)S(C)(=O)=O [Compound 305] | > 1000
O=C(Cc1ncccn1)NC[C@H]1C[C@H](c2c(-c3ccc(F)cc3)[nH]c3c(F)cc(F)cc32)C1 [Compound 248] | > 1000
Cn1ccnc1S(=O)(=O)N[C@H]1C[C@H](c2c(-c3ccc(F)cc3)[nH]c3c(F)cc(F)cc32)C1 [Compound 148] | > 1000
O=C(NC[C@H]1C[C@@H](c2c(-c3ccc(F)cc3)[nH]c3c(F)cc(F)cc32)C1)C1(O)CC1 [Compound 234] | > 1000
O=C1CCC[C@@H](C(=O)NC[C@H]2C[C@H](c3c(-c4ccc(F)cc4)[nH]c4c(F)cc(F)cc43)C2)N1 [Compound 253] | > 1000
O=S(=O)(NC[C@H](O)CO)NC[C@H]1C[C@H](c2c(-c3ccc(F)cc3)[nH]c3c(F)cc(F)cc32)C1 [Compound 350] | > 1000
NCC1CC(c2c(-c3ccc(C4CC4)cc3)[nH]c3ccc(F)cc23)C1 (stereo not drawn) [Compound 177] | > 1000
CC1(C)CCC(C(=O)N[C@H]2C[C@@H](c3c(-c4ccc(F)cc4)[nH]c4c(F)cc(F)cc43)C2)N1 (stereo partly drawn) [Compound 64] | > 1000
O=C1NCCC1CNS(=O)(=O)NC[C@H]1C[C@H](c2c(-c3ccc(F)cc3)[nH]c3c(F)cc(F)cc32)C1 (stereo partly drawn) [Compound 345] | > 1000
C[C@@H](O)[C@@H](CO)NS(=O)(=O)NC[C@H]1C[C@H](c2c(-c3ccc(F)cc3)[nH]c3c(F)cc(F)cc32)C1 [Compound 363] | > 1000
O=C(Cn1cnnc1)N[C@H]1C[C@H](c2c(-c3ccc(F)cc3)[nH]c3c(F)cc(F)cc32)C1 [Compound 139] | > 1000
CO[C@H](C)C(=O)NC[C@H]1C[C@H](c2c(-c3ccc(F)cc3)[nH]c3c(F)cc(F)cc32)C1 [Compound 240] | > 1000

More lines, now with the values ahead:

IC50 [nM] | Structure (SMILES)
> 1000 | C[C@H](NC(=O)OC(C)(C)C)C(=O)NC[C@H]1C[C@H](c2c(-c3ccc(F)cc3)[nH]c3c(F)cc(F)cc32)C1 [Compound 227]
< 250 | O=C(NC[C@H]1C[C@H](c2c(-c3ccc(F)cc3)[nH]c3c(F)cc(F)cc32)C1)C(F)F [Compound 200]
> 1000 | O=C(NC[C@H]1C[C@H](c2c(-c3ccc(F)cc3)[nH]c3c(F)cc(F)cc32)C1)c1ccc[nH]1 [Compound 314]
> 1000 | Nc1nonc1C(=O)NC[C@H]1C[C@H](c2c(-c3ccc(F)cc3)[nH]c3c(F)cc(F)cc32)C1 [Compound 329]
< 250 | Fc1ccc(-c2[nH]c3c(F)cc(F)cc3c2CC2CNC2)cc1 [Compound 436, 3-(azetidin-3-ylmethyl)-5,7-difluoro-2-(4-fluorophenyl)-1H-indole]
250 to 1000 | O=C(N1CC(Cc2c(-c3ccc(F)cc3)[nH]c3c(F)cc(F)cc23)C1)C1(CO)CC1 [Compound 437, [3-[[5,7-difluoro-2-(4-fluorophenyl)-1H-indol-3-yl]methyl]azetidin-1-yl]-[1-(hydroxymethyl)cyclopropyl]methanone (Trifluoroacetate salt)]
250 to 1000 | C[C@H](O)C(=O)NC[C@H]1C[C@@H](c2c(-c3ccc(F)cc3)[nH]c3c(F)cc(F)cc32)C1 [Compound 213]
250 to 1000 | CC(CO)NCC1CC(c2c(-c3ccc(F)cc3)[nH]c3c(F)cc(F)cc23)C1 (mixture of isomers) [Compound 378]
250 to 1000 | O=C(NC[C@H]1C[C@@H](c2c(-c3ccc(F)cc3)[nH]c3c(F)cc(F)cc32)C1)C(F)F [Compound 219]
< 250 | N#CCC(=O)N[C@H]1C[C@H](c2c(-c3ccc(F)cc3)[nH]c3c(F)cc(F)cc32)C1 [Compound 129]
250 to 1000 | CC(=O)N[C@@H](CO)C(=O)NC[C@H]1C[C@H](c2c(-c3ccc(F)cc3)[nH]c3c(F)cc(F)cc32)C1 [Compound 224]
< 250 | O=S(=O)(NCCO)NC[C@H]1C[C@H](c2c(-c3ccc(F)cc3)[nH]c3c(F)cc(F)cc32)C1 [Compound 339]
250 to 1000 | O=C(NC[C@H]1C[C@H](c2c(-c3ccc(F)cc3)[nH]c3c(F)cc(F)cc32)C1)[C@@H]1C[C@@H](O)CN1 [Compound 225]

Same assay, conditions: Thallium Assay (IC50), HEK 293 T-Rex inducible stable clone expressing G1 APOL1

Structure (SMILES) | IC50 [nM]
NC1CC(c2c(-c3ccc(F)cc3)[nH]c3c(F)cc(F)cc23)C1 (stereo not drawn) [Compound 14, 3-[5,7-difluoro-2-(4-fluorophenyl)-1H-indol-3-yl]cyclobutanamine] | < 250
CC(C)(C)OC(=O)N1CCC[C@H]1C(=O)NC[C@H]1C[C@H](c2c(-c3ccc(F)cc3)[nH]c3c(F)cc(F)cc32)C1 [Compound 217] | 250 to 1000
